Experimental data from ChEMBL document CHEMBL4382193, “Discovery of Potent Irreversible Pan-Fibroblast Growth Factor Receptor (FGFR) Inhibitors” (J Med Chem, 2018).
Calls of active or inactive are those of the source. No cut-off for these calls is given here.

Tests used:
[1] = molecular target: Fibroblast growth factor receptor 4 (Homo sapiens, UniProt P22455); assay: Inhibition of recombinant FGFR4 (unknown origin) using poly (Glu,Tyr) 4:1 as substrate after 60 mins by ELISA
NCI-H1581 [2] = assay: cells; conditions: Homo sapiens, NCI-H1581, 72 h
Description: Antiproliferative activity against FGFR1 amplified human NCI-H1581 cells after 72 hrs by CCK8 or MTT assay

[3] = molecular target: T1, Fibroblast growth factor receptor 1 (Homo sapiens, UniProt P11362)
Target sequence in this assay (P11362 whole entry): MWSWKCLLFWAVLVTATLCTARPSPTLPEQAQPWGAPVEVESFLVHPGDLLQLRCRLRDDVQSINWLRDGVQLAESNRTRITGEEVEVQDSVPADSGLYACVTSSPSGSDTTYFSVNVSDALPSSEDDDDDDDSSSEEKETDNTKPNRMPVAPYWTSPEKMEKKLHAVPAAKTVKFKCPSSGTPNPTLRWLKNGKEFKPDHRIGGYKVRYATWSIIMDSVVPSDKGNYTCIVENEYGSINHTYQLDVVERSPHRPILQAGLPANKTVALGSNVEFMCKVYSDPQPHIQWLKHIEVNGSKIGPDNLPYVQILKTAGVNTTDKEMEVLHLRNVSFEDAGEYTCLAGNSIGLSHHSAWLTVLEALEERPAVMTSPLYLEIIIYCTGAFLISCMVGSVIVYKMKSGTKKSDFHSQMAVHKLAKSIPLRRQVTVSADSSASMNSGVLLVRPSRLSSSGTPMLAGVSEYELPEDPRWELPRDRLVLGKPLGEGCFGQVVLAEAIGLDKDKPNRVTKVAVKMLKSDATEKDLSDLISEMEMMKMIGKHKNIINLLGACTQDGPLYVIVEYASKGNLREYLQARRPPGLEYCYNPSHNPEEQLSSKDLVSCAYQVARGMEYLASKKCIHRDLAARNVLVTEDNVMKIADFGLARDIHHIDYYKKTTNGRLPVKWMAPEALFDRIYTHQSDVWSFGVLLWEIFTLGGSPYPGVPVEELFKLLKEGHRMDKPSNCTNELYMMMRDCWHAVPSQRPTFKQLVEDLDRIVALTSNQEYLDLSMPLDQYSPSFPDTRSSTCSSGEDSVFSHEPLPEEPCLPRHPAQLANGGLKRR
Description: Inhibition of recombinant FGFR1 (unknown origin) using poly (Glu,Tyr) 4:1 as substrate after 60 mins by ELISA

[4] = molecular target: Tyrosine-protein kinase ABL1 (Homo sapiens, UniProt P00519); assay: Inhibition of recombinant ABL (unknown origin) using poly (Glu,Tyr) 4:1 as substrate after 60 mins by ELISA
[5] = molecular target: T2, Fibroblast growth factor receptor 3 (Homo sapiens, UniProt P22607); assay: Inhibition of FGFR3 phosphorylation in human UMUC14 cells at 1 to 100 nM after 2 hrs by Western blot analysis; type: cell-based
Target sequence in this assay (P22607 23-806 limits assumed): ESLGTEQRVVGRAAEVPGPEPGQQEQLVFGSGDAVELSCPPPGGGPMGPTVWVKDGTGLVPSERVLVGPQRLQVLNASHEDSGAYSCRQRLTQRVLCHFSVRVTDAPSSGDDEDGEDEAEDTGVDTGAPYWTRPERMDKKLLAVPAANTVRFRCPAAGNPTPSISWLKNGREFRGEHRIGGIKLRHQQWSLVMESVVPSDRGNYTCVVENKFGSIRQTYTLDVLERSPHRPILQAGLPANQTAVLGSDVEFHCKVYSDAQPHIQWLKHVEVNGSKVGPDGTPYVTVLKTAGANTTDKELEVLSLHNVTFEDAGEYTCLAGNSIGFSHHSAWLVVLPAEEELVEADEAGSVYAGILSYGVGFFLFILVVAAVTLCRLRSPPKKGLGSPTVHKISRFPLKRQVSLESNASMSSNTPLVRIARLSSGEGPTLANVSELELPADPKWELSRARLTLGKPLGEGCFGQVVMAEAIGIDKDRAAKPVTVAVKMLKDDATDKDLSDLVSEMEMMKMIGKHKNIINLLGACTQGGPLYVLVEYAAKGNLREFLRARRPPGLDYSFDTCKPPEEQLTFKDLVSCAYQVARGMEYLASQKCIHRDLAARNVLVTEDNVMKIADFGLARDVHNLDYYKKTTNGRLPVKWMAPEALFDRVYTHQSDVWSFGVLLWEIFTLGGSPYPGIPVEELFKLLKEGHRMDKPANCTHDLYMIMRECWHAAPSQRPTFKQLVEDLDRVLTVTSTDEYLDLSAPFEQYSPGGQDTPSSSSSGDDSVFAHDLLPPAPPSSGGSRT

[6] = molecular target: ALK tyrosine kinase receptor (Homo sapiens, UniProt Q9UM73); assay: Inhibition of recombinant ALK (unknown origin) using poly (Glu,Tyr) 4:1 as substrate after 60 mins by ELISA
Huh-7 = assay: cells; conditions: Homo sapiens, Huh-7, 72 h
Description: Antiproliferative activity against FGF19/FGFR4 expressing human HuH7 cells after 72 hrs by CCK8 or MTT assay

NCI-H1581 [7] = assay: Antitumor activity against FGFR1 amplified human NCI-H1581 cells xenografted in po dosed nude mouse assessed as tumor growth inhibition administered once daily for 14 days; type: functional, organism-based
[8] = Toxicity in nude mouse xenografted with FGFR1 amplified human NCI-H1581 cells assessed as weight loss at 50 to 100 mg/kg, po administered once daily for 14 days relative to control; type: organism-based; conditions: in vivo, 336 h
[9] = molecular target: T3, Fibroblast growth factor receptor 2 (Homo sapiens, UniProt P21802); assay: Inhibition of FGFR2 phosphorylation in human SNU16 cells at 0.1 to 10 nM after 2 hrs by Western blot analysis; type: cell-based
Target sequence in this assay (P21802 22-821 limits assumed): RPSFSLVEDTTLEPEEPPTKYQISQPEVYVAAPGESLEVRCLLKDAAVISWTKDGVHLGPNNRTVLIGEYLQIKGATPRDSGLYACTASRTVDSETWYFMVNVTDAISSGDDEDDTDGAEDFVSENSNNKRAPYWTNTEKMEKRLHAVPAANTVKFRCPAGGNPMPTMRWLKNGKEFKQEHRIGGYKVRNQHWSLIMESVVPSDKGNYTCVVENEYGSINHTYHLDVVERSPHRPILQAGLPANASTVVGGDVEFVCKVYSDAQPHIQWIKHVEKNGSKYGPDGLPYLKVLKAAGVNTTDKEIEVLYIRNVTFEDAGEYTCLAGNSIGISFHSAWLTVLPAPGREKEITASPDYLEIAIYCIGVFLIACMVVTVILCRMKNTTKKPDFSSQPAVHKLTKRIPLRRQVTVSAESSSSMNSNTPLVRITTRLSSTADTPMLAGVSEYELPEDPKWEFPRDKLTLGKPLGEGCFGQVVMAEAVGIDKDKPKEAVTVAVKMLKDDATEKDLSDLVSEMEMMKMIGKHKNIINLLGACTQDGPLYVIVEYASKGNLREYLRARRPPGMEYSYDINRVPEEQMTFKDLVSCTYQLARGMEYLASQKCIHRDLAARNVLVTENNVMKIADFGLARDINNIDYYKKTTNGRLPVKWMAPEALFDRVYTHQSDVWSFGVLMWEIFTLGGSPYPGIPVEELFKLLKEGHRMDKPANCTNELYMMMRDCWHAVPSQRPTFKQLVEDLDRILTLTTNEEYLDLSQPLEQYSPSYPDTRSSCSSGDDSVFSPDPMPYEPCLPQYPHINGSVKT

[10] = molecular target: T1, Fibroblast growth factor receptor 1; assay: Inhibition of FGFR1 in human KG1 cells assessed as reduction in PLCgamma phosphorylation at 5 to 20 nM after 2 hrs by Western blot analysis; type: cell-based
Target sequence in this assay (P11362 22-822 limits assumed): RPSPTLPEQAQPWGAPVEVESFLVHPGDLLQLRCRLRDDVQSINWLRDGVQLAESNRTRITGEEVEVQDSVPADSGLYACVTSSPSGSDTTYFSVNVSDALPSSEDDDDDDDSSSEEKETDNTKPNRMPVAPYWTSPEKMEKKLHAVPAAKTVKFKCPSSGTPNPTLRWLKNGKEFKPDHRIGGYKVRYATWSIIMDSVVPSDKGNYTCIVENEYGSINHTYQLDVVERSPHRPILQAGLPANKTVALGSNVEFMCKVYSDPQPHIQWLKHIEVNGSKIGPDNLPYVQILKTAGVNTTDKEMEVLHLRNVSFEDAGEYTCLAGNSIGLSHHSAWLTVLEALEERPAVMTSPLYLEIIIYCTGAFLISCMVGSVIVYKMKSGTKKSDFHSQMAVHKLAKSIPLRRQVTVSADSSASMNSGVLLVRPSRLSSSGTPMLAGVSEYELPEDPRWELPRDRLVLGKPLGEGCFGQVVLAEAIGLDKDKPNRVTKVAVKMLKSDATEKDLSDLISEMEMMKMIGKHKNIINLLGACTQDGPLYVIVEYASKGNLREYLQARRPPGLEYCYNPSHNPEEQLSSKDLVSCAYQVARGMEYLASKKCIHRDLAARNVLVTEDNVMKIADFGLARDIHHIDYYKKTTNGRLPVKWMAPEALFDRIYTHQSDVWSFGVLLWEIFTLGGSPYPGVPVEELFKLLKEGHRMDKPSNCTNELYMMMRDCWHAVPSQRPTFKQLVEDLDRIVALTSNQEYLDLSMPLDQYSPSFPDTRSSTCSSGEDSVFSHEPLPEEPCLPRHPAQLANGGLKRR

[11] = molecular target: Platelet-derived growth factor receptor alpha (Homo sapiens, UniProt P16234); assay: Inhibition of recombinant PDGFRalpha (unknown origin) using poly (Glu,Tyr) 4:1 as substrate after 60 mins by ELISA
[12] = molecular target: T2, Fibroblast growth factor receptor 3; assay: Inhibition of FGFR3 in human UMUC14 cells assessed as reduction in PLCgamma phosphorylation at 1 to 100 nM after 2 hrs by Western blot analysis; type: cell-based
Target sequence in this assay (P22607 23-806 limits assumed): as the sequence (P22607 23-806 limits assumed) above

[13] = molecular target: Insulin-like growth factor 1 receptor (Homo sapiens, UniProt P08069); assay: Inhibition of recombinant IGF1R (unknown origin) using poly (Glu,Tyr) 4:1 as substrate after 60 mins by ELISA
OPM-2 = assay: cells; conditions: Homo sapiens, OPM-2, 72 h
Description: Antiproliferative activity against FGFR3 amplified human OPM2 cells after 72 hrs by CCK8 or MTT assay

[14] = molecular target: Receptor tyrosine-protein kinase erbB-4 (Homo sapiens, UniProt Q15303); assay: Inhibition of recombinant ERBB4 (unknown origin) using poly (Glu,Tyr) 4:1 as substrate after 60 mins by ELISA
[15] = molecular target: T3, Fibroblast growth factor receptor 2; assay: Inhibition of recombinant FGFR2 (unknown origin) using poly (Glu,Tyr) 4:1 as substrate after 60 mins by ELISA
BaF3 [16] = assay: cells; conditions: Mus musculus, BaF3, 72 h
Description: Antiproliferative activity against mouse BAF3 cells expressing TEL-fused KDR kinase after 72 hrs by CCK8 or MTT assay

[17] = AUC in Sprague-Dawley rat at 10 mg/kg, po administered via gavage by HPLC-MS/MS analysis; type: ADME, organism-based; conditions: in vivo
SNU-16 [18] = assay: Antitumor activity against FGFR2 amplified human SNU16 cells xenografted in nude mouse assessed as tumor growth inhibition at 50 mg/kg, po administered once daily for 21 days relative to control; type: functional; conditions: SNU-16, po, 504 h, read-out: TGI
[19] = molecular target: Tyrosine-protein kinase BTK (Homo sapiens, UniProt Q06187); assay: Inhibition of recombinant BTK (unknown origin) using poly (Glu,Tyr) 4:1 as substrate after 60 mins by ELISA
Tyrosine-protein kinase BTK, sequence (Q06187 whole entry): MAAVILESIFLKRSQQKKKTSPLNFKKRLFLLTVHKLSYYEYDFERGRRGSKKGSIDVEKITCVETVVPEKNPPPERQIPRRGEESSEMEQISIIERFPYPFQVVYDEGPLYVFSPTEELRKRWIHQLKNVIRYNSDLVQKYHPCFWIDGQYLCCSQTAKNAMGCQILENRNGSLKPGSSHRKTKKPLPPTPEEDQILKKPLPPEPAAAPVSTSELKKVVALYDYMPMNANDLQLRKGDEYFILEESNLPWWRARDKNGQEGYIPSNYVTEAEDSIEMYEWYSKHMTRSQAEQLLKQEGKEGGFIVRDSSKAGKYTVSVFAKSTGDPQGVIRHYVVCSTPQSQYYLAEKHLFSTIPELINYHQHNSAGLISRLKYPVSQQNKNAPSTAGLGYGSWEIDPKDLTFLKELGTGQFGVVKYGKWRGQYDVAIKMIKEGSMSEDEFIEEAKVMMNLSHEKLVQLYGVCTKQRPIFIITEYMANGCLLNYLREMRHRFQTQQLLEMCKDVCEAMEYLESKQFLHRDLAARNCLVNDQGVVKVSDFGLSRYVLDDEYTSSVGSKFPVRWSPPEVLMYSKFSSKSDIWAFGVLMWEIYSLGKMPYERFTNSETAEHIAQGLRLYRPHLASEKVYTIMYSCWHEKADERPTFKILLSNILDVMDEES

NCI-H1581 [20] = assay: Antitumor activity against FGFR1 amplified human NCI-H1581 cells xenografted in nude mouse assessed as tumor growth inhibition at 100 mg/kg, po administered once daily for 14 days relative to control; type: functional; conditions: 336 h, read-out: TGI
[21] = molecular target: Vascular endothelial growth factor receptor 1 (Homo sapiens, UniProt P17948); assay: Inhibition of recombinant FLT1 (unknown origin) using poly (Glu,Tyr) 4:1 as substrate after 60 mins by ELISA
[22] = molecular target: T3, Fibroblast growth factor receptor 2; assay: Inhibition of FGFR2 in human SNU16 cells assessed as reduction in PLCgamma phosphorylation at 0.1 to 10 nM after 2 hrs by Western blot analysis; type: cell-based
Target sequence in this assay (P21802 22-821 limits assumed): as the sequence (P21802 22-821 limits assumed) above

[23] = molecular target: Vascular endothelial growth factor receptor 2 (Homo sapiens, UniProt P35968); assay: Inhibition of recombinant VEGFR2 (unknown origin) using poly (Glu,Tyr) 4:1 as substrate after 60 mins by ELISA
[24] = molecular target: Platelet-derived growth factor receptor beta (Homo sapiens, UniProt P09619); assay: Inhibition of recombinant PDGFRbeta (unknown origin) using poly (Glu,Tyr) 4:1 as substrate after 60 mins by ELISA
RT-112 = assay: cells; conditions: Homo sapiens, RT-112, 72 h
Description: Antiproliferative activity against FGFR3 amplified human RT112 cells after 72 hrs by CCK8 or MTT assay

[25] = Terminal half life in Sprague-Dawley rat at 10 mg/kg, po administered via gavage by HPLC-MS/MS analysis; type: ADME, organism-based; conditions: in vivo, read-out: beta t1/2 (converted)
[26] = molecular target: Epidermal growth factor receptor (Homo sapiens, UniProt P00533); assay: Inhibition of recombinant EGFR (unknown origin) using poly (Glu,Tyr) 4:1 as substrate after 60 mins by ELISA
[27] = molecular target: Hepatocyte growth factor receptor (Homo sapiens, UniProt P08581); assay: Inhibition of recombinant c-MET (unknown origin) using poly (Glu,Tyr) 4:1 as substrate after 60 mins by ELISA
[28] = Toxicity in nude mouse xenografted with FGFR2 amplified human SNU16 cells assessed as weight loss at 25 to 50 mg/kg, po administered once daily for 21 days relative to control; type: organism-based; conditions: in vivo, 504 h
SNU-16 [29] = assay: Antitumor activity against FGFR2 amplified human SNU16 cells xenografted in po dosed nude mouse assessed as tumor growth inhibition administered once daily for 21 days; type: functional, organism-based
[30] = molecular target: T2, Fibroblast growth factor receptor 3; assay: Inhibition of recombinant FGFR3 (unknown origin) using poly (Glu,Tyr) 4:1 as substrate after 60 mins by ELISA
[31] = molecular target: T1, Fibroblast growth factor receptor 1; assay: Inhibition of FGFR1 in human KG1 cells assessed as reduction in ERK phosphorylation at 5 to 20 nM after 2 hrs by Western blot analysis; type: cell-based
Target sequence in this assay (P11362 22-822 limits assumed): as the sequence (P11362 22-822 limits assumed) above

Ephrin type-A receptor 2 = Ephrin type-A receptor 2 (Homo sapiens, UniProt P29317); assay: Inhibition of recombinant EPHA2 (unknown origin) using poly (Glu,Tyr) 4:1 as substrate after 60 mins by ELISA
[32] = molecular target: Receptor tyrosine-protein kinase erbB-2 (Homo sapiens, UniProt P04626); assay: Inhibition of recombinant ERBB2 (unknown origin) using poly (Glu,Tyr) 4:1 as substrate after 60 mins by ELISA
[33] = molecular target: T3, Fibroblast growth factor receptor 2; assay: Inhibition of FGFR2 in human SNU16 cells assessed as reduction in ERK phosphorylation at 0.1 to 10 nM after 2 hrs by Western blot analysis; type: cell-based
Target sequence in this assay (P21802 22-821 limits assumed): as the sequence (P21802 22-821 limits assumed) above

Homo sapiens = species: Homo sapiens; assay: Selectivity ratio of IC50 for recombinant VEGFR2 (unknown origin) to IC50 for recombinant FGFR1 (unknown origin)
[34] = molecular target: T2, Fibroblast growth factor receptor 3; assay: Inhibition of FGFR3 in human UMUC14 cells assessed as reduction in ERK phosphorylation at 1 to 100 nM after 2 hrs by Western blot analysis; type: cell-based
Target sequence in this assay (P22607 23-806 limits assumed): as the sequence (P22607 23-806 limits assumed) above

[35] = Cmax in Sprague-Dawley rat at 10 mg/kg, po administered via gavage by HPLC-MS/MS analysis; type: ADME, organism-based; parameters: dose 10 mg/kg, route oral; conditions: in vivo
[36] = molecular target: T1, Fibroblast growth factor receptor 1; assay: Inhibition of FGFR1 phosphorylation in human KG1 cells at 5 to 20 nM after 2 hrs by Western blot analysis; type: cell-based
Target sequence in this assay (P11362 22-822 limits assumed): as the sequence (P11362 22-822 limits assumed) above

SNU-16 [37] = assay: cells; conditions: Homo sapiens, SNU-16, 72 h
Description: Antiproliferative activity against FGFR2 amplified human SNU16 cells after 72 hrs by CCK8 or MTT assay

[38] = Tmax in Sprague-Dawley rat at 10 mg/kg, po administered via gavage by HPLC-MS/MS analysis; type: ADME, organism-based; conditions: in vivo
[39] = molecular target: Proto-oncogene tyrosine-protein kinase Src (Homo sapiens, UniProt P12931); assay: Inhibition of recombinant c-SRC (unknown origin) using poly (Glu,Tyr) 4:1 as substrate after 60 mins by ELISA
BaF3 [40] = assay: cells; conditions: Mus musculus, BaF3, 72 h; remark: listed apart in the source
Description: Antiproliferative activity against mouse BAF3 cells expressing TEL-fused FGFR4 kinase after 72 hrs by CCK8 or MTT assay

[41] = molecular target: T1, Fibroblast growth factor receptor 1; assay: Irreversible inhibition of FGFR1 (unknown origin) at 100 times IC50 concentration using 5-FAM-KKSRGDYMTMQIG-CONH2 peptide as substrate preincubated for 30 mins followed 100 fold dilution with substrate and ATP and measured for 1 hr
Target sequence in this assay (P11362 22-822 limits assumed): as above

Fibroblast growth factor receptor 4, sequence (P22455 whole entry): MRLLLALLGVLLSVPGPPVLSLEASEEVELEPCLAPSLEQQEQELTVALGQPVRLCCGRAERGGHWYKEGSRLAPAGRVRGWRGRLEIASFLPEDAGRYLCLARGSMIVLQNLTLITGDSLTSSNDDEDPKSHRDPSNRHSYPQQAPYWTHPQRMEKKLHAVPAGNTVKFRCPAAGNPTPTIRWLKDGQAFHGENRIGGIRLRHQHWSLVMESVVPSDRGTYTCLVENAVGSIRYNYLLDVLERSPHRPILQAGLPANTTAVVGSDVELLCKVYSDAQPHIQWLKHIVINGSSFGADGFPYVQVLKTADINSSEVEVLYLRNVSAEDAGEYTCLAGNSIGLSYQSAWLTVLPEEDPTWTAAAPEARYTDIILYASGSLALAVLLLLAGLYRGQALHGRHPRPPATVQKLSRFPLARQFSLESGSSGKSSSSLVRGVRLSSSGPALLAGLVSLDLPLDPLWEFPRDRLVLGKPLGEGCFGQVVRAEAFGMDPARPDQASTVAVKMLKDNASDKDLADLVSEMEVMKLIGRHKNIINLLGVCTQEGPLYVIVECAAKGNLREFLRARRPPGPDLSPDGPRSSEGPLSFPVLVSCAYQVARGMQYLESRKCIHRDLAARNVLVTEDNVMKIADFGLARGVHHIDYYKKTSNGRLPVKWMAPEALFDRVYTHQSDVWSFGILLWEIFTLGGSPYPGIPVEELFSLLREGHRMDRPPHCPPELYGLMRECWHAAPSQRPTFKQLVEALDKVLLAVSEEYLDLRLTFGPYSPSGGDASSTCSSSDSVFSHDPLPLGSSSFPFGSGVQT

For `C=CC(=O)N1CC(n2cc(-c3cc4cc(C)cc(OC)c4o3)c3c(N)ncnc32)C1`, the IC50 [1] was > 1000 nM.
In the case of `C=CC(=O)N1CCC(n2cc(-c3cc4cccc(OC)c4s3)c3c(N)ncnc32)C1` (stereo not drawn), the IC50 (NCI-H1581 [2]) is reported as < 0.3 nM.
With `C=CC(=O)N1CCCC1Cn1cc(-c2cc3cc(C)cc(OC)c3s2)c2c(N)ncnc21` (stereo not drawn) the IC50 (NCI-H1581 [2]) was < 0.3 nM.
With `C=CC(=O)N1CC(n2cc(-c3cc4cc(OC)ccc4s3)c3c(N)ncnc32)C1` the IC50 (NCI-H1581 [2]) was 38.1 nM.
Work on `C=CC(=O)N1CC(n2cc(-c3cc4cc(C)cc(OC)c4s3)c3c(N)nc(Cl)nc32)C1` yielded an IC50 (NCI-H1581 [2]) of 207 nM.
With `C=CC(=O)N1CCC(n2cc(-c3cc4cc(C)cc(OC)c4s3)c3c(N)ncnc32)C1` (stereo not drawn) the IC50 [1] was 6.2 nM, the IC50 [3] was < 0.3 nM and the IC50 (NCI-H1581 [2]) was < 0.3 nM.
In the case of `C=CC(=O)NC1CCC(n2cc(-c3cc4cc(C)cc(OC)c4s3)c3c(N)ncnc32)CC1` (stereo not drawn), the IC50 (NCI-H1581 [2]) is reported as 67.9 nM.
`C=CC(=O)N1CC(n2cc(-c3cc4c(OC)ccc(OC)c4s3)c3c(N)ncnc32)C1` showed an IC50 (NCI-H1581 [2]) of 15.9 nM.
For `C=CC(=O)N1CC(n2cc(-c3cc4ccccc4s3)c3c(N)ncnc32)C1`, the IC50 (NCI-H1581 [2]) was 170 nM.
`C=CC(=O)NCCn1cc(-c2cc3cc(C)cc(OC)c3s2)c2c(N)ncnc21` gave an IC50 (NCI-H1581 [2]) of 255 nM.
`C=CC(=O)N1CCC(n2cc(-c3cc(OC)cc(OC)c3)c3c(N)ncnc32)C1` (stereo not drawn) showed an IC50 (NCI-H1581 [2]) of 90.2 nM.
With `C=CC(=O)N1CCC(n2cc(-c3cc4cc(C)cc(OC)c4s3)c3c(NC)ncnc32)C1` (stereo not drawn) the IC50 [1] was > 100 nM and the IC50 [3] was > 100 nM.
In the case of `C=CC(=O)N1CC[C@H](n2cc(-c3cc4cc(C)cc(OC)c4s3)c3c(N)ncnc32)C1`, the IC50 [4] is reported as > 1000 nM, the inhibition [5] is reported as “Active” and the IC50 [6] is reported as > 1000 nM. The IC50 (Huh-7) was < 1.5 nM, the TGI (NCI-H1581 [7]) was “Dose-dependent effect” and the Activity [8] was “Non-Toxic”. The inhibition [9] was “Active”, the inhibition [10] was “Active” and the IC50 [11] was > 1000 nM. For the same molecule, the inhibition [12] was “Active”, the IC50 [13] was > 1000 nM and the IC50 (OPM-2) was < 0.5 nM. For the same molecule, the IC50 [14] was > 1000 nM, the IC50 [15] was 0.8 nM and the IC50 (BaF3 [16]) was 294 nM. The AUC [17] was 277 ng·h/mL, the inhibition in vivo at 50 mg/kg (SNU-16 [18]) was 85.8% and the IC50 [19] was > 1000 nM. The IC50 [1] was 5.3 nM, the inhibition in vivo at 100 mg/kg (NCI-H1581 [20]) was 98.9% and the IC50 [21] was > 1000 nM. The inhibition [22] was “Active”, the IC50 [3] was < 0.3 nM and the IC50 [23] was 113 nM. The IC50 (NCI-H1581 [2]) was 0.3 to 0.5 nM, the IC50 [24] was > 1000 nM and the IC50 (RT-112) was < 0.5 nM. The half-life [25] was 1.73 h, the IC50 [26] was > 1000 nM and the IC50 [27] was > 1000 nM. The Activity [28] was “Non-Toxic”, the TGI (SNU-16 [29]) was “Dose-dependent effect” and the IC50 [30] was 9.4 nM. The inhibition [31] was “Active”, the IC50 (Ephrin type-A receptor 2) was > 1000 nM and the IC50 [32] was > 1000 nM. The inhibition [33] was “Active”, the Ratio IC50 (Homo sapiens) was > 350 and the inhibition [34] was “Active”. For the same molecule, the Cmax [35] was 77.7 ng/mL, the inhibition [36] was “Active” and the IC50 (SNU-16 [37]) was < 0.1 nM. The Tmax [38] was 2.75 h, the IC50 [39] was > 1000 nM and the IC50 (BaF3 [40]) was < 4.6 nM. For the same molecule, the inhibition [41] was “Active”.
Molecule `C=CC(=O)N1CCC(n2cc(-c3cc4cc(C)cc(OC)c4s3)c3c(N)nc(C)nc32)C1` (stereo not drawn) has an IC50 (NCI-H1581 [2]) of 254 nM.
With `C=CC(=O)N1CCC(n2cc(-c3cc4cccc(C)c4s3)c3c(N)ncnc32)C1` (stereo not drawn) the IC50 (NCI-H1581 [2]) was < 0.3 nM.
